The text below walks through data of patent US6582968B2, “Paramagnetic and active analogue (EMP-2) of melanocyte stimulating hormone containing amino acid-type stable free radical” (Conselho Nacional de Desenvolvimento Cientifico e …, priority 1999, dated 2003).

The assay has as its system frog (Rana catesbeiana) skin. Briefly: frog skin bioassay (skin darkening measured by reflectance). The class given is cell-based. The following applies: for time to reversal of the maximum response after removal of the agonist: 10^−8 M peptide, removal followed by several Ringer's solution washings, FIG. 5; for agonist character and potency compared to native α-MSH (dose-response curves): frog skin pigmentation, decrease in skin reflectance, FIG. 4. As for the experimental part:
The biological activity assay of the EPM-2 was carried out comparatively to the native α-MSH. The classical method of measuring by reflectance the alteration in the frog skin pigmentation was assayed, see, Gen. Comp. Endocrinol. 55, 104 (1984). The potency of the synthesized hormone was determined through a dose-effect curve and long lasting activities were measured until a maximum of 3 h after the peptide removal from the incubation system carried out with successive washes. Briefly, the skin of the thigh and the dorsal portion of a frog were removed and cut in pieces of 2×2 cm which were placed among two rings of PVC and maintained for 1 h in Ringer's solution. After this period, the melanin granules aggregate in the melanocytes, and the skin becomes clearer. When α-MSH or its spin labeled analogue is added to the medium, there is a dispersion of the pigments in the cell, resulting in skin darkening. The change in the coloration is therefore monitored (decrease in the skin reflectance) in a photovolt reflectometer. The result is expressed as percentage in relation to the initial value.

In the case of “Acetyl-Toac-Ser-Tyr-Ser-Met-Glu-His-Phe-Arg-Trp-Gly-Lys-Pro-Val-CONH2 [EPM-2]”, the “time to reversal of the maximum response after removal of the agonist” value amounted to 90 min; the “agonist character and potency compared to native α-MSH (dose-response curves)” value is listed as “fully maintaining the biological potency of the native α-MSH”. Also, under “listed as labeled analogue”, the “agonist character and potency compared to native α-MSH (dose-response curves)” value is “full α-MSH agonist with equivalent potency”. Further, the “natural biological activity maintained” value (relative to native α-MSH) is on record as 100%.
Regarding “Acetyl-Ser-Tyr-Ser-Met-Glu-His-Phe-Arg-Trp-Gly-Lys-Pro-Val-CONH2 (Ac-SYSMEHFRWGKPV-NH2) [α-MSH, native melanocyte stimulating hormone, comparator, reference compound]”, the “time to reversal of the maximum response after removal of the agonist” value is listed as 90 min.
